Series [1] in a line: Stereoselective pharmacokinetics in rat liver tissue. In kind it is in vivo, Sprague–Dawley rats. The following applies: rat liver, oral 40 mg/kg farrerol racemate; for Cmax / AUC(0–t) / AUC(0–∞): 40 mg/kg. How it is done: Forty-two rats were divided randomly into seven groups (6 rats per time point at 0.5, 1, 2, 4, 8, 12, and 24 h) and were orally administered farrerol racemate at a dose of 40 mg/kg. Rats from each group were euthanized, and kidney and liver tissues were subsequently obtained. After washing three times using 0.9% sodium chloride solution, the attached blood and fat tissues were removed. Afterward, 0.5 g of the precisely weighed liver and kidney tissues were added to 1 mL 0.9% sodium chloride solution and homogenized in an ice bath. Subsequently, 150 µL of supernatant was transferred into a 2.0 mL EP tube for pre-treatment, in the same way as the pretreatment of plasma samples (see Section 3.4.1).
Stereoselective chromatographic analysis of farrerol enantiomers was conducted utilizing an ACQUITY UPLC I-Class UPLC system (Waters, Milford, MA, USA), which is equipped with a quaternary pump and an autosampler. The chiral separation was carried out employing a Chiralpak OJ-RH column (250 mm × 4.6 mm, 5 μm), which was obtained from Daicel Chemical Industries (Shanghai, China). The mobile phase consisted of ACN-H2O (60:40, v/v), and the constant flow rate was 0.5 mL/min. The column temperature was set at 25 °C, and the injection volume was 10 μL.
Mass detection was conducted using a triple quadrupole mass spectrometer (Waters Co., USA) equipped with an electrospray ionization (ESI) source. The detection of enantiomers and internal standards (IS) was carried out in multiple reaction monitoring (MRM) mode utilizing negative ionization. The m/z 299→179 for enantiomers and m/z 267→252 for IS were selected as detecting ions for quantitation. The collision energies (CE) were established at 22 eV and 20 eV, respectively. The primary mass spectrometry (MS) parameters were configured as follows: capillary voltage was set to 3.5 kV, ion source temperature was maintained at 150 °C, desolvation gas flow rate was 800 L/h, and the cone voltage (CV) was adjusted to 1.3 V.
Pharmacokinetic analysis was conducted utilizing the Drug and Statistics (DAS) 2.0 software provided by the Chinese Pharmacological Society. To assess the differences in pharmacokinetic parameters, the IC50 values of the evaluated CYP enzymes and the permeability coefficients between the two farrerol enantiomers, paired sample t-tests and independent sample t-tests were performed. Statistical significance was defined as * p < 0.05 and ** p < 0.01. All results are presented as mean values ± standard deviation (SD).

The target of another series is T1, CYP1A2 (Homo sapiens, UniProt P05177).
T1 sequence (P05177 1-516): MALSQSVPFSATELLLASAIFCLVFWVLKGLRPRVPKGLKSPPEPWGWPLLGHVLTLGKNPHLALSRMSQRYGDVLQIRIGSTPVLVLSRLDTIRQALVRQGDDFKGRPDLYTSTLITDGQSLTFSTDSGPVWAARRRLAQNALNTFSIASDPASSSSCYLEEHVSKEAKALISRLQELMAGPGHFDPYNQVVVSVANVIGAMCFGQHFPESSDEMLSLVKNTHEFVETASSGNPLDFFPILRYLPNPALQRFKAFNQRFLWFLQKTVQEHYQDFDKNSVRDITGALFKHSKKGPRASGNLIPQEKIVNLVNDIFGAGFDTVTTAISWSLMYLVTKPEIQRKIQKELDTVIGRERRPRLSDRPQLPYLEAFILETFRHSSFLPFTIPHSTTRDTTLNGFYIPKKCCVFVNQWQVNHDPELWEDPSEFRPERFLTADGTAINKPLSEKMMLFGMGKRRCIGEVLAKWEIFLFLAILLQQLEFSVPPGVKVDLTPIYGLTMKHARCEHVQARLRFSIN
Briefly: CYP inhibition in liver microsomes (phenacetin). Conditions: IC50, CYP 1A2, marker substrate phenacetin. How it is done: (§1) A liver microsome working solution (20 mg/mL) contained potassium phosphate buffer (0.1 M, pH 7.4), hepatic microsomes and marker substrate solution, which phenacetin, diclofenic acid, S-mephenytoinwer, dextromethorphan, midazolam, coumarin and chlorzoxazone used as substrates for […], CYP2C9, CYP2C19, CYP2D6, CYP3A4/5, CYP2A6 and CYP2E1, respectively. In brief, 238.5 µL of liver microsome working solution was placed in a 1 mL EP tube. […] The reaction was started by injecting NADPH (1 mM), and the resulting mixture was incubated at 37 °C for 10 min. After centrifuging at 4000 rpm for 15 min, the supernatant was transferred and analyzed using LC-MS/MS to detect the corresponding metabolites. Each incubation was conducted in triplicate (n = 3).
(§2) An API 4000 LC/tandem mass spectrometry was used to analyze the concentration of metabolites of various chemical agents using a validated mode. An Atlantis T3 column (2.1 mm × 50 mm, 5 μm) was utilized, employing mobile phases consisting of a 0.1% formic acid solution (A) and a 0.1% acetonitrile formate solution (B). […] As for the detection of CYP 2E1 metabolite, the Flow composition was as follows: 0–0.30 min, 10% B; 0.30–1.30 min, 10–55% B; 1.30–1.50 min, 55–95% B; 1.50–2.00 min, 95% B; 2.00–2.01 min, 95–10% B; the low rate was 0.85 mL/min. ESI was conducted in positive ion mode. MRM was utilized to quantify each metabolite, detecting the following transitions: m/z 152.1/110 for acetaminophen, 312.1/230.0 for 4′-Hydroxydiclofenac, 235.0/150.0 for 4′-hydroxymephentoin, 258.2/199.1 for Dextrorphan, 342.1/203.0 for 1′-hydroxymidazolam, 161.1/133.1 for hydroxycoumarin, and 184.0/120.0 for 6-hydroxyclozoxadone.

In another series the target is CYP2C9 (Homo sapiens, UniProt P11712). The experiment in a line: CYP inhibition in liver microsomes (diclofenac). Conditions: IC50, CYP 2C9, marker substrate diclofenac. Here is the method: as §1, with “After centrifuging at 4000 rpm for 15 min, the supernatant was transferred and analyzed using LC-MS/MS to detect the corresponding metabolites.” left out
An API 4000 LC/tandem mass spectrometry was used to analyze the concentration of metabolites of various chemical agents using a validated mode. An Atlantis T3 column (2.1 mm × 50 mm, 5 μm) was utilized, employing mobile phases consisting of a 0.1% formic acid solution (A) and a 0.1% acetonitrile formate solution (B). […] ESI was conducted in positive ion mode.

The test system of another series is CYP3A4/5. The experiment in a line: CYP inhibition in liver microsomes (midazolam). Conditions: CYP 3A4/5(M); marker substrate midazolam; liver microsomes. Here is the method:
as §1, §2

Several values for one entry are separate records, joined by “and”; a condition that tells them apart may be missing. Equal entries are not always repeated. Where two headings read alike, the source gives them in different places.

What is called Cmax is the peak of the concentration-time curve. As usually defined, the Tmax is the time at which the peak concentration occurs. The IC50 is the point on the concentration scale where inhibition reaches its midpoint.

Chain of CYP2C9 (P11712 whole entry): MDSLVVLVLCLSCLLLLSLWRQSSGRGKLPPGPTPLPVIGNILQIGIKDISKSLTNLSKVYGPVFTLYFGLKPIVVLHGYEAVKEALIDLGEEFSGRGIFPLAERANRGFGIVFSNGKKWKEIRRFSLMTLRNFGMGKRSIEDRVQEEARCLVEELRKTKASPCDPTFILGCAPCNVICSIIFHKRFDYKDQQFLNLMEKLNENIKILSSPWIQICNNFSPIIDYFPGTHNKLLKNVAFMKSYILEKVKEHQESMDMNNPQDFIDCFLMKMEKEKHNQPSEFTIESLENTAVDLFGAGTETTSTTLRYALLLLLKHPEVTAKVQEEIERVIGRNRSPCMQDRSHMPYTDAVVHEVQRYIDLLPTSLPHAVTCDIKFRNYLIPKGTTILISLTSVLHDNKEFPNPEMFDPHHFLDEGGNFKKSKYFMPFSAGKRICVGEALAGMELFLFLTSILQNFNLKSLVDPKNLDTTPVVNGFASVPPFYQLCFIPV

For the molecule `Cc1c(O)c(C)c2c(c1O)C(=O)CC(c1ccc(O)cc1)O2` (single isomer, unassigned; (+)) [(+)-farrerol, 2,3-dihydro-5,7-dihydroxy-2-(4-hydroxyphenyl)-6,8-dimethyl-4-benzopyrone], the Cmax in series [1] (Sprague-Dawley, rat, liver, po, read-out: Cmax) amounted to 104000 ± 18000 ng/g. Further, in series [1] (Sprague-Dawley, read-out: Tmax), the Tmax turned out to be 2 h. In addition, the “AUC(0–t)” value in series [1] came out at 976.25 ± 41.60 µg·h/g. Further, in series [1], the “AUC(0–∞)” value was 994.01 ± 40.84 µg·h/g. In addition, the IC50 is 588 nM at CYP1A2, 1970 nM on CYP2C9 and > 5e-05 M in the series on CYP3A4/5.

For `Cc1c(O)c(C)c2c(c1O)C(=O)CC(c1ccc(O)cc1)O2` (single isomer, unassigned; (-)) [(−)-farrerol, 2,3-dihydro-5,7-dihydroxy-2-(4-hydroxyphenyl)-6,8-dimethyl-4-benzopyrone], in series [1], the “AUC0–24 of (−)-farrerol relative to (+)-farrerol” value was 1.23 times; the “Cmax of (−)-farrerol relative to (+)-farrerol” value turned out to be 1.43 times; the Tmax was found to be 2.00 h; the “AUC(0–t)” value was 1200.9 µg/g*h and 1200.96 ± 58.92 * µg/g*h. For the same molecule, in series [1], the “AUC(0–∞)” value is on record as 1217.62 ± 65.03 * µg/g*h and the Cmax was 148.4 ± 2.61 * µg/g. Further, the IC50 against CYP1A2 was found to be 1020 nM. For the same molecule, on CYP2C9, half-maximal inhibition (IC50) was put at 1570 nM. The IC50 with CYP3A4/5 was determined as 2.09e-05 M.

The values above are taken from PMC12073438, “Stereoselectivity of In Vivo Processes and Bioactivity of Farrerol Enantiomers” (Molecules, 2025).
